From patent US11427615B2, “Peptide compound and application thereof, and composition containing peptide compound” (XDCEXPLORER (SHANGHAI) CO., LTD., priority 2017, dated 2022)
Starred links: 1 amine or outer side, 2 acyl side, 3 side chain; linkers in the order of their positions; H or OH if unused. Non-standard residues stand in square brackets, D forms with d. Residues, ends and D or L forms follow the SMILES beside them. *: point of attachment. X2 = CCCCCCCCCCCC(=O)NCCOCCOCCOCCOCCOCCn1cc(CC(=O)*)nn1; cPrCO(1-aminomethyl) = O=C(C1(CN[*:1])CC1)[*:2]; X16 = O=C(CCC(=O)[*:2])[C@H](Cc1ccccc1)N[*:1]; dPhe(2,4-Cl2) = N[C@H](Cc1ccc(Cl)cc1Cl)C(=O)O; Ala(4-thiazolyl) = N[C@@H](Cc1cscn1)C(=O)O; PEG8 = NCCOCCOCCOCCOCCOCCOCCOCCOCCC(=O)O; dAla(2-furyl) = N[C@H](Cc1ccco1)C(=O)O; dPhe(4-I) = N[C@H](Cc1ccc(I)cc1)C(=O)O; X9 = CC(C)CC(C(=O)[*:2])C(=S)NCN[*:1]; Arg(Me) = CNC(=N)NCCC[C@H](N)C(=O)O; Palmitoyl = CCCCCCCCCCCCCCCC(=O)*; Hyp = O=C(O)[C@@H]1C[C@@H](O)CN1; Cba = N[C@@H](CC1CCC1)C(=O)O; Nonanoyl = CCCCCCCCC(=O)*; Ac6c = NC1(C(=O)O)CCCCC1; Ac5c = NC1(C(=O)O)CCCC1; Aze = O=C(O)[C@@H]1CCN1; Thp = NC1(C(=O)O)CCOCC1; Deg = CCC(N)(CC)C(=O)O; AEEA = NCCOCCOCC(=O)O; azaGly = NNC(=O)O; βAla = NCCC(=O)O

These compounds were tested against T1, human kiss1 receptor (GPR54) (Homo sapiens, UniProt Q969F8) (assay: Kiss1 receptor (GPR54) binding activity of agonists, FRET detection in NFAT-bla CHO-K1 cells). Conditions: GPR54; measured according to the method of effect Embodiment 1; preliminary data; read-out: Preliminary measurement data (GPR54) EC50.
T1 construct: host or cells: NFAT-bla CHO-K1 cells (Chinese hamster ovary), purchased recombinant cell line
Type: cell-based
Description: Effect Embodiment 1 Determination of Kiss1 Receptor (GPR54) Binding Activity of Kiss1 Receptor (GPR54) Agonist
The binding activity test of each compound from the above the embodiments with kiss1 receptor (GPR54) was performed by fluorescence energy resonance transfer (FRET) detection technology to detect EC50 values of polypeptides and peptide analogs. The cells used in this experiment were NFAT-bla CHO-K1 cells (k1720, invitrogen, thermosher) that express human kiss1 receptor (GPR54). The specific operations were as follows:
Day 1: Seeding Cells in Plate
1. Microscope (CKX41, OLYMPUS), object lens×4 times, ocular lens×10 times. The cells were ensured in a good condition.
2. Digesting the cells, adding 3 ml of 0.05% pancreatin into a culture dish; cells were placed in a 37° C., 5% CO2 incubator for 2 minutes (Thermo Fisher). After the cells became round under the microscope, 7 ml of culture medium was added. The formula of culture medium was as follows: DMEM 90%, dialzedfbS10, NEAA 0.1 mM, HEPES 25 mM, Penicillin 100 U/ml, Streptomycin 100 μm/ml, pH7.3. After blowing and stirring, it was transferred to 15 mL centrifuge tube (430790, Corning). Centrifuge at 1000 rpm for 5 min (5810R, Eppendorf) and the supernatant was discard.
3. Adding 7 mL of culture medium (DMEM+0.1% BSA), it was pipetting into single cell suspension, after counting with Bio-RAD counter, the cell density was adjusted to 312,500 cells/ml.
4. Cells were inoculated into 384 well plates at 32 μL per well, and the cell number was controlled at 10000 cells/well. 32 μl of culture medium was added into the blank control.
Day 2: Dosing and Data Analysis
1) The compound to be tested was prepared into 50 mM working solution with DMSO.
2) 40 μl of the working solution of the compound to be tested was added into column 2 of row A-H of U-shaped 96-well plate (3797, comings), and 60 μl of DMSO was added into column 3-11. 20 μl of compound solution was sucked from the second column to the third column with a multichannel pipette blowing and stirring evenly; 20 μl of compound solution was absorbed from the third column with a multichannel pipette, then added into the fourth column, blowed and stirred to mix well; the compound was serially diluted 4-fold to a total of 10 concentrations. Column 1 and column 12 of 96-well plates were supplemented with 40 μl DMSO.
2. Intermediate Plate Configuration
1) AU-shaped 96-well plate was used, 199 μL of culture medium (DMEM+0.1% BSA) was added to each well, 1 μL of diluted compound (or DMSO) was sucked from 1000× compound plate and added into the 96-well plate at the corresponding position, blowed and stirred to mix well.
2) Homemade positive compounds and compounds to be tested were added. The cell culture plate was took out from the incubator and cells state was observed under microscope. Diluted compound in the intermediate plate or DMSO was added into the cell, 8 μl per well.
3) Cells were cultured in 37° C. and 5% CO2 for 4 hours.
3. The Substrate was Added to Detect the Binding of the Drug to the Receptor
1) 1 μmol/L CCF-4AM solution and buffer solution B, C, D were equilibrated to room temperature. LiveBLAZER™-FRET B/G Loading Kit (K1095, thermo Fisher) containing CCF-4AM and solution B, solution C, solution D were also available from Invitrogen (K1157, thermo Fisher).
2) 6× loading solution was prepared: 6 μl of CCF-4AM dissolved solution A, 60 μl of solution b, 904 μl of solution c, and 30 μl of solution D were pipetted into EP tube, blowed and stirred to mix well.
3) 8 μl of the above-mentioned liquid was sucked with a multichannel pipette, added into a 96-well plate, and incubated for 2 hours at room temperature.
4) The PerkinElmer detector was used to detect the luminous signals of each hole. FI mode, λex=409 nm, λem1=460 nm, λem2=530 nm.
4. Data Processing Using Graphpad Prism 5 (GraphPad Software. Inc)
Effective rate %=(Signal−Min)/(Max−Min)×100%.

T1 sequence (Q969F8 whole entry): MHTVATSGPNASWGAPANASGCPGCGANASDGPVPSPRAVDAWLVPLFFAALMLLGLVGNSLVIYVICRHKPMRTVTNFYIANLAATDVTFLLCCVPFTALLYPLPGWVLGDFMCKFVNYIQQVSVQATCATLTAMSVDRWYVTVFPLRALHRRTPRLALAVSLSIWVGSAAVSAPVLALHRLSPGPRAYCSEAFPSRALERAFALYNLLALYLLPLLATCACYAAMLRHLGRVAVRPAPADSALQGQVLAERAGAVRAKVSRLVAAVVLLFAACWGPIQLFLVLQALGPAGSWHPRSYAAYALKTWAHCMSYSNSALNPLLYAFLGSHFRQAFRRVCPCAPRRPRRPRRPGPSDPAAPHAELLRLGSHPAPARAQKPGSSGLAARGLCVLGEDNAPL

Structure (SMILES) | EC50 [nM]
CNC(=N)NCCC[C@H](NC(=O)[C@H](CC(C)C)NC(=O)NNC(=O)[C@H](Cc1ccccc1)NC(=O)[C@@H](NC(=O)[C@H](CC(N)=O)NC(=O)C1(NC(=O)[C@@H](Cc2ccc(Cl)cc2Cl)NC(C)=O)CCCCC1)[C@@H](C)O)C(=O)N[C@@H](Cc1c[nH]c2ccccc12)C(N)=O [YA-260, Ac-[D-Phe(2,4-DiCl)]-A6c-Asn-Thr-Phe-azaGly-Leu-Arg(Me)-Trp-NH2] (Ac-[dPhe(2,4-Cl2)][Ac6c]NTF[azaGly]L[Arg(Me)]W-NH2) | 0.027
CNC(=N)NCCC[C@H](NC(=O)[C@H](CC(C)C)NC(=O)NNC(=O)[C@H](Cc1ccccc1)NC(=O)[C@@H](NC(=O)[C@H](CC(N)=O)NC(=O)C1(NC(C)=O)CCCCC1)[C@@H](C)O)C(=O)N[C@@H](Cc1c[nH]c2ccccc12)C(N)=O [YA-266, Ac-A6c-Asn-Thr-Phe-azaG-Leu-Arg(Me)-Trp-NH2] (Ac-[Ac6c]NTF[azaGly]L[Arg(Me)]W-NH2) | 0.32
CCCCCCCCCCCCCCCC(=O)NCCOCCOCCOCCOCCOCCOCCOCCOCCC(=O)NCC(=O)NCC(=O)N[C@H](Cc1ccc(O)cc1)C(=O)NC1(C(=O)N[C@@H](CC(N)=O)C(=O)N[C@H](C(=O)N[C@@H](Cc2ccccc2)C(=O)NNC(=O)N[C@@H](CC(C)C)C(=O)N[C@@H](CCCNC(=N)NC)C(=O)N[C@@H](Cc2c[nH]c3ccccc23)C(N)=O)[C@@H](C)O)CCCCC1 [YA-268, Palm-PEG8-G-G-DY-A6c-Asn-Thr-Phe-azaG-Leu-Arg(Me)-Trp-NH2] ({Palmitoyl-PEG8}-GG[dY][Ac6c]NTF[azaGly]L[Arg(Me)]W-NH2) | 0.02
CNC(=N)NCCC[C@H](NC(=O)[C@H](CC(C)C)NC(=O)CCC(=O)[C@H](Cc1ccccc1)NC(=O)[C@@H](NC(=O)[C@H](CC(N)=O)NC(=O)[C@@H]1C[C@@H](O)CN1C(=O)[C@@H](Cc1ccc(O)cc1)NC(C)=O)[C@@H](C)O)C(=O)N[C@@H](Cc1c[nH]c2ccccc12)C(N)=O [YA-274, M10 [Ac, D-Tyr45, Hyp46, des47, Thr49, (—CH2CH2CO—)51, Arg(Me)53, Trp54]] (Ac-[dY][Hyp]NT[X16]L[Arg(Me)]W-NH2; C-terminus assumed) | 0.048
CNC(=N)NCCC[C@H](NC(=O)[C@H](CC(C)C)NC(=O)C1(NC(=O)[C@H](Cc2ccccc2)NC(=O)[C@@H](NC(=O)[C@H](CC(N)=O)NC(=O)[C@@H]2C[C@@H](O)CN2C(=O)[C@@H](Cc2ccc(O)cc2)NC(C)=O)[C@@H](C)O)CCCC1)C(=O)N[C@@H](Cc1c[nH]c2ccccc12)C(N)=O [YA-282, Ac-(D-Tyr)-Hyp-Asn-Thr-Phe-cycloLeu-Leu-Arg(Me)-Trp-NH2] (Ac-[dY][Hyp]NTF[Ac5c]L[Arg(Me)]W-NH2) | 0.46
CCCCCCCCCCCCCCCC(=O)NCCOCCOCCOCCOCCOCCOCCOCCOCCC(=O)NCC(=O)NCC(=O)N[C@H](Cc1ccc(O)cc1)C(=O)N1C[C@H](O)C[C@H]1C(=O)N[C@@H](CC(N)=O)C(=O)N[C@H](C(=O)N[C@@H](Cc1ccccc1)C(=O)N1CC[C@H]1C(=O)N[C@@H](CC(C)C)C(=O)N[C@@H](CCCNC(=N)NC)C(=O)N[C@@H](Cc1c[nH]c2ccccc12)C(N)=O)[C@@H](C)O [YA-287, Palm-PEG 8-Gly-Gly-D-Tyr-Hyp-Asn-Thr-Phe-Aze-Leu-Arg(Me)-Trp-NH2] ({Palmitoyl-PEG8}-GG[dY][Hyp]NTF[Aze]L[Arg(Me)]W-NH2) | 0.038
CNC(=N)NCCC[C@H](NC(=O)[C@H](CC(C)C)NC(=O)NNC(=O)[C@H](Cc1ccccc1)NC(=O)[C@@H](NC(=O)[C@H](CC(N)=O)NC(=O)[C@@H]1C[C@@H](O)CN1C(=O)[C@@H](Cc1ccc(O)cc1)NC(=O)CCNC(=O)CCNC(=O)[C@H](CCC(N)=O)NC(=O)[C@@H]1CCCN1C(=O)[C@H](CCCNC(=N)N)NC(=O)[C@H](CCCNC(=N)N)NC(=O)[C@H](CCCNC(=N)N)NC(=O)[C@H](CCC(N)=O)NC(=O)[C@H](CCCNC(=N)N)NC(=O)[C@H](CCCNC(=N)N)NC(=O)[C@H](CCCCN)NC(=O)[C@H](CCCCN)NC(=O)[C@H](CCCNC(=N)N)NC(=O)CNC(C)=O)[C@@H](C)O)C(=O)N[C@@H](Cc1c[nH]c2ccccc12)C(N)=O [YA-291, Ac-Gly-Arg-Lys-Lys-Arg-Arg-Gln-Arg-Arg-Pro-Gln-(Beta-Ala)-(Beta-Ala)-(D-Tyr)-Hyp-Asn-Thr-Phe-Azag-Leu-Arg(Me)-Trp-NH2] (Ac-GRKKRRQRRRPQ[βAla][βAla][dY][Hyp]NTF[azaGly]L[Arg(Me)]W-NH2) | 0.31
CCCCCCCCC(=O)NCCOCCOCC(=O)N[C@H](Cc1ccc(O)cc1)C(=O)N1C[C@H](O)C[C@H]1C(=O)N[C@@H](CC(N)=O)C(=O)N[C@H](C(=O)N[C@@H](Cc1ccccc1)C(=O)NNC(=O)N[C@@H](CC(C)C)C(=O)N[C@@H](CCCNC(=N)NC)C(=O)N[C@@H](Cc1c[nH]c2ccccc12)C(N)=O)[C@@H](C)O [YA-295, Nonanoyl-OEG-D-Tyr-Hyp-Asn-Thr-Phe-azaGly-Leu-Arg(Me)-Trp-NH2] ({Nonanoyl-AEEA}-[dY][Hyp]NTF[azaGly]L[Arg(Me)]W-NH2) | 0.02
CCCCCCCCCCCC(=O)NCCOCCOCCOCCOCCOCCn1cc(CC(=O)N[C@H](Cc2ccc(O)cc2)C(=O)N2C[C@H](O)C[C@H]2C(=O)N[C@@H](CC(N)=O)C(=O)N[C@H](C(=O)N[C@@H](Cc2ccccc2)C(=O)NCNC(=S)C(CC(C)C)C(=O)N[C@@H](CCCNC(=N)NC)C(=O)N[C@@H](Cc2c[nH]c3ccccc23)C(N)=O)[C@@H](C)O)nn1 (stereo partly drawn) [YA-348, M10 [Dodecanoyl-PEG5-1,2,3- Triazole cyclic-Acetyl, D-Tyr45, Hyp46, des47, Thr49, Gψ(NHCS)51, Arg(Me)53, Trp54]] (X2-[dY][Hyp]NTF[X9][Arg(Me)]W-NH2) | 0.019
CNC(=N)NCCC[C@H](NC(=O)[C@H](CC(C)C)NC(=O)C1(NC(=O)[C@H](Cc2ccccc2)NC(=O)[C@@H](NC(=O)[C@H](CC(N)=O)NC(=O)[C@@H]2C[C@@H](O)CN2C(=O)[C@@H](Cc2ccc(O)cc2)NC(C)=O)[C@@H](C)O)CCOCC1)C(=O)N[C@@H](Cc1c[nH]c2ccccc12)C(N)=O [YA-354, Ac-(D-Tyr)-Hyp-Asn-Thr-Phe-morpholino cyclic amino acid-Leu-Arg(Me)-Trp-NH2] (Ac-[dY][Hyp]NTF[Thp]L[Arg(Me)]W-NH2) | 0.26
CNC(=N)NCCC[C@H](NC(=O)[C@H](CC(C)C)NC(=O)[C@H](Cc1cscn1)NC(=O)[C@H](Cc1ccccc1)NC(=O)[C@@H](NC(=O)[C@H](CC(N)=O)NC(=O)[C@@H]1C[C@@H](O)CN1C(=O)[C@@H](Cc1ccc(O)cc1)NC(C)=O)[C@@H](C)O)C(=O)N[C@@H](Cc1c[nH]c2ccccc12)C(N)=O [YA-357, Ac-(D-Tyr)-Hyp-Asn-Thr-Phe-Beta-(thiazoly-4-yl)-L-Ala-Leu-Arg(Me)-Trp-NH2] (Ac-[dY][Hyp]NTF[Ala(4-thiazolyl)]L[Arg(Me)]W-NH2) | 0.3
CNC(=N)NCCC[C@H](NC(=O)[C@H](CC(C)C)NC(=O)NNC(=O)[C@H](Cc1ccccc1)NC(=O)[C@@H](NC(=O)[C@H](CC(N)=O)NC(=O)[C@@H]1C[C@@H](O)CN1C(=O)[C@@H](Cc1ccc(I)cc1)NC(C)=O)[C@@H](C)O)C(=O)N[C@@H](Cc1c[nH]c2ccccc12)C(N)=O [YA-358, Ac-(D-Phe(4-I))-Hyp-Asn-Thr-Phe-azaGly-Leu-Arg(Me)-Trp-NH2] (Ac-[dPhe(4-I)][Hyp]NTF[azaGly]L[Arg(Me)]W-NH2) | 0.032

Same assay, conditions: human kiss1 receptor (GPR54), NFAT-bla CHO-K1 cells, FRET; preliminary data; method of effect Embodiment 1; read-out: Preliminary measurement data (GPR54) EC50

Structure (SMILES) | EC50 [nM]
CNC(=N)NCCC[C@H](NC(=O)[C@H](CC(C)C)NC(=O)C1(NC(=O)[C@H](Cc2ccccc2)NC(=O)[C@@H](NC(=O)[C@H](CC(N)=O)NC(=O)C2(NC(=O)[C@@H](Cc3ccc(Cl)cc3Cl)NC(C)=O)CCCCC2)[C@@H](C)O)CCCCC1)C(=O)N[C@@H](Cc1c[nH]c2ccccc12)C(N)=O [YA-259, Ac-D-Phe(2,4-DiCl)-A6c-Asn-Thr-Phe-Abc-Leu-Arg(Me)-Trp-NH2] (Ac-[dPhe(2,4-Cl2)][Ac6c]NTF[Ac6c]L[Arg(Me)]W-NH2) | 3.2
CNC(=N)NCCC[C@H](NC(=O)[C@H](CC(C)C)NC(=O)C1(NC(=O)[C@H](Cc2ccccc2)NC(=O)[C@@H](NC(=O)[C@H](CC(N)=O)NC(=O)C2(NC(=O)[C@@H](Cc3ccco3)NC(C)=O)CCCCC2)[C@@H](C)O)CCCCC1)C(=O)N[C@@H](Cc1c[nH]c2ccccc12)C(N)=O [YA-272, Ac-3-(2-furyl)-D-alanine-A6c-Asn-Thr-Phe-A6c-Leu-Arg(Me)-Trp-NH2] (Ac-[dAla(2-furyl)][Ac6c]NTF[Ac6c]L[Arg(Me)]W-NH2) | 7.95
CNC(=N)NCCC[C@H](NC(=O)[C@H](CC(C)C)NC(=O)[C@H](CC1CCC1)NC(=O)[C@H](Cc1ccccc1)NC(=O)[C@@H](NC(=O)[C@H](CC(N)=O)NC(=O)[C@@H]1C[C@@H](O)CN1C(=O)[C@@H](Cc1ccc(O)cc1)NC(C)=O)[C@@H](C)O)C(=O)N[C@@H](Cc1c[nH]c2ccccc12)C(N)=O [YA-284, Ac-(D-Tyr)-Hyp-Asn-Thr-Phe-Cba-Leu-Arg(Me)-Trp-NH2] (Ac-[dY][Hyp]NTF[Cba]L[Arg(Me)]W-NH2) | 1.7
CNC(=N)NCCC[C@H](NC(=O)[C@H](CC(C)C)NC(=O)C1(CNC(=O)[C@H](Cc2ccccc2)NC(=O)[C@@H](NC(=O)[C@H](CC(N)=O)NC(=O)[C@@H]2C[C@@H](O)CN2C(=O)[C@@H](Cc2ccc(O)cc2)NC(C)=O)[C@@H](C)O)CC1)C(=O)N[C@@H](Cc1c[nH]c2ccccc12)C(N)=O [YA-289, Ac-(D-Tyr)-Hyp-Asn-Thr-Phe-ACPA-Leu-Arg(Me)-Trp-NH2] (Ac-[dY][Hyp]NTF[cPrCO(1-aminomethyl)]L[Arg(Me)]W-NH2) | 42.6
CNC(=N)NCCC[C@H](NC(=O)[C@H](CC(C)C)NC(=O)CCNC(=O)[C@H](Cc1ccccc1)NC(=O)[C@@H](NC(=O)[C@H](CC(N)=O)NC(=O)[C@@H]1C[C@@H](O)CN1C(=O)[C@@H](Cc1ccc(O)cc1)NC(C)=O)[C@@H](C)O)C(=O)N[C@@H](Cc1c[nH]c2ccccc12)C(N)=O [YA-337, Ac-(D-Tyr)-Hyp-Asn-Thr-Phe-BetaAla-Leu-Arg(Me)-Trp-NH2] (Ac-[dY][Hyp]NTF[βAla]L[Arg(Me)]W-NH2) | 2.2
CCC(CC)(NC(=O)[C@H](Cc1ccccc1)NC(=O)[C@@H](NC(=O)[C@H](CC(N)=O)NC(=O)[C@@H]1C[C@@H](O)CN1C(=O)[C@@H](Cc1ccc(O)cc1)NC(C)=O)[C@@H](C)O)C(=O)N[C@@H](CC(C)C)C(=O)N[C@@H](CCCNC(=N)NC)C(=O)N[C@@H](Cc1c[nH]c2ccccc12)C(N)=O [YA-355, Ac-(D-Tyr)-Hyp-Asn-Thr-Phe-Deg-Leu-Arg(Me)-Trp-NH2] (Ac-[dY][Hyp]NTF[Deg]L[Arg(Me)]W-NH2) | 1.2
